Measurements from ChEMBL document CHEMBL1129188, “Structure activity relationships of tetrahydrocannabinol analogues on human cannabinoid receptors” (Bioorg Med Chem Lett, 1996).

How the values were obtained:
Cannabinoid receptor 1 [1] = molecular target: T1, Cannabinoid receptor 1 (Homo sapiens, UniProt P21554); test: Compound was evaluated for binding affinity against human cannabinoid receptor by using radioligand ([3H]CP-55940) assay; second determination
[2] = molecular target: Cannabinoid receptor (Homo sapiens) (UniProt P34972+P21554); test: Ratio of binding affinity of hCB1 to hCB2 was reported; format: protein assay
Chain of Cannabinoid receptor (Homo sapiens) (P21554 whole entry, looked up): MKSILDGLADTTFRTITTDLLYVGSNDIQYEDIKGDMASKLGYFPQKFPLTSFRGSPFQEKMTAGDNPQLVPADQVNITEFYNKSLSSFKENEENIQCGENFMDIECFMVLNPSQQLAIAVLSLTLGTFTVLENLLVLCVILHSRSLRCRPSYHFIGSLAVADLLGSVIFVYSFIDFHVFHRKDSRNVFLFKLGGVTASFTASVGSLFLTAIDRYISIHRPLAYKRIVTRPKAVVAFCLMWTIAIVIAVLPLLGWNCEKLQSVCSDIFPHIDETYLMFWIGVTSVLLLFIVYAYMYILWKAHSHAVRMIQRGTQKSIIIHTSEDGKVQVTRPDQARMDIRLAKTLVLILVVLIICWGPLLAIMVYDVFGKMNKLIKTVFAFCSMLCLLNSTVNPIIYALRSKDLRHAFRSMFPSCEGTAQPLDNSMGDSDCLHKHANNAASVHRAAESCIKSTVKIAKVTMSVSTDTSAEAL
Chain of Cannabinoid receptor (Homo sapiens) (P34972 whole entry, looked up): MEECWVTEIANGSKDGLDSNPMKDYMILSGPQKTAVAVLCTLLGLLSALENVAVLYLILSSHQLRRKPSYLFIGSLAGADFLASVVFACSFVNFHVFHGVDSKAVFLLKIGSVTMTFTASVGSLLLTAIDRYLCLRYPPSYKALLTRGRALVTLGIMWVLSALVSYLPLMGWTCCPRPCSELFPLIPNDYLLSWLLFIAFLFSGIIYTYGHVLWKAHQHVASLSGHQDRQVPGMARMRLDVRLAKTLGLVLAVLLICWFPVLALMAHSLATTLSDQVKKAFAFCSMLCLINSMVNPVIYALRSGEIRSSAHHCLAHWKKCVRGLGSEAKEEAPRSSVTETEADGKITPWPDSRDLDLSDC

Cannabinoid receptor 1 [3] = molecular target: T1, Cannabinoid receptor 1; test: Compound was evaluated for binding affinity against human cannabinoid receptor by using radioligand ([3H]CP-55940) assay; first determination
Cannabinoid receptor 2 = Cannabinoid receptor 2 (Homo sapiens, UniProt P34972); test: Binding affinity against human Cannabinoid receptor 2 by using radioligand ([3H]CP-55940) assay.
Chain of Cannabinoid receptor 2 (P34972 whole entry): as the sequence (P34972 whole entry, looked up) above

Cannabinoid receptor 1 [4] = molecular target: T1, Cannabinoid receptor 1; test: Binding affinity against human cannabinoid receptor by using radioligand ([3H]CP-55940) assay.

T1 sequence (P21554 whole entry): as the sequence (P21554 whole entry, looked up) above

| Compound | Ki (Cannabinoid receptor 1 [1]) [nM] | Ratio [2] | Ki (Cannabinoid receptor 1 [3]) [nM] | Ki (Cannabinoid receptor 2) [nM] | Ki (Cannabinoid receptor 1 [4]) [nM] |
| --- | --- | --- | --- | --- | --- |
| CCCCCCC(C)(C)c1cc2c(c(OP(=O)(OCC)OCC)c1)[C@@H]1CC(C)=CC[C@H]1C(C)(C)O2 | > 20000 | > 45 | > 20000 | 442 | – |
| C=C1CC[C@@H]2[C@@H](C1)c1c(O)cc(C(C)(C)CCCCCC)cc1OC2(C)C | – | 3.1 | – | 0.58 | 1.82 |
| CCCCCCC(C)(C)c1cc(O)c2c(c1)OC(C)(C)[C@@H]1CC=C(C=O)C[C@@H]21 | – | 0.9 | – | 2.61 | 2.24 |
| CCCCCCC(C)(C)c1ccc(-c2cc(C)cc(C)c2)cc1 | – | > 14 | – | 2140 | > 30000 |
| CCCCCCC(C)(C)c1cc(OC)c(-c2cc(C)cc(C)c2)c(OC)c1 | – | > 46 | – | 433 | > 20000 |
| CCCCCCC(C)(C)c1cc(O)c2c(c1)OC(C)(C)[C@H]1CC=C(C=O)C[C@H]21 | – | 0.8 | – | 119 | 97 |
| CCCCCCC(C)(C)c1cc(O)c([C@@H]2C=C(C)C3C[C@H]2C3(C)C)c(O)c1 | – | 9 | – | 41.2 | 350 |
| CCCCCCC(C)(C)c1cc(O)c(-c2cc(C)cc(C)c2)c(O)c1 | – | 40 | – | 2 | 79.1 |
| CCCCCCC(C)(C)c1cc(O)c2c(c1)OC(C)(C)[C@H]1CC=C(C)C[C@H]21 | – | 1.3 | – | 28.8 | 38.8 |
| CCCCCCC(C)(C)c1ccc2c(c1)OC(C)(C)[C@@H]1CC=C(C)C[C@@H]21 | – | 12 | – | 20.8 | 250 |
| CCCCCCC(C)(C)c1cc(OC)c2c(c1)OC(C)(C)[C@@H]1CCC(=O)C[C@@H]21 | – | 4.7 | – | 132 | 621 |
| CCCCCCC(C)(C)c1cc(O)c2c(c1)OC(C)(C)[C@@H]1CCC(=O)C[C@@H]21 [NABILONE] | – | 1.2 | – | 1.84 | 2.19 |
| CCCCCCC(C)(C)c1cc(OC)c2c(c1)OC(C)(C)[C@@H]1CC=C(C)C[C@@H]21 | – | 793 | – | 20 | 15800 |
| C=C1CC[C@@H]2[C@@H](C1)c1c(OC)cc(C(C)(C)CCCCCC)cc1OC2(C)C | – | > 1000 | – | 19.4 | > 20000 |
| CCCCCCC(C)(C)c1ccc(-c2cc(C)cc(C)c2)c(O)c1 | – | 3 | – | 4.14 | 12.5 |
| CCCCCCC(C)(C)c1cc(O)c2c(c1)OC(C)(C)[C@@H]1CC=C(C)C[C@@H]21 | – | 1.7 | – | 0.49 | 0.83 |
